Experimental data published in BindingDB's records for doi:10.7270/Q2F769ZM (The Scripps Research Institute Molecular Screening Center, 2007).

These compounds were tested against Rho-associated protein kinase 2 (Homo sapiens, UniProt O75116) (assay: human Rho kinase 2 inhibition – biochemical, Kinase-Glo luminescence, S6 peptide, 1536-well, dose response (AID 644)). Settings: not given.
Sequence of Rho-associated protein kinase 2 (O75116 whole entry): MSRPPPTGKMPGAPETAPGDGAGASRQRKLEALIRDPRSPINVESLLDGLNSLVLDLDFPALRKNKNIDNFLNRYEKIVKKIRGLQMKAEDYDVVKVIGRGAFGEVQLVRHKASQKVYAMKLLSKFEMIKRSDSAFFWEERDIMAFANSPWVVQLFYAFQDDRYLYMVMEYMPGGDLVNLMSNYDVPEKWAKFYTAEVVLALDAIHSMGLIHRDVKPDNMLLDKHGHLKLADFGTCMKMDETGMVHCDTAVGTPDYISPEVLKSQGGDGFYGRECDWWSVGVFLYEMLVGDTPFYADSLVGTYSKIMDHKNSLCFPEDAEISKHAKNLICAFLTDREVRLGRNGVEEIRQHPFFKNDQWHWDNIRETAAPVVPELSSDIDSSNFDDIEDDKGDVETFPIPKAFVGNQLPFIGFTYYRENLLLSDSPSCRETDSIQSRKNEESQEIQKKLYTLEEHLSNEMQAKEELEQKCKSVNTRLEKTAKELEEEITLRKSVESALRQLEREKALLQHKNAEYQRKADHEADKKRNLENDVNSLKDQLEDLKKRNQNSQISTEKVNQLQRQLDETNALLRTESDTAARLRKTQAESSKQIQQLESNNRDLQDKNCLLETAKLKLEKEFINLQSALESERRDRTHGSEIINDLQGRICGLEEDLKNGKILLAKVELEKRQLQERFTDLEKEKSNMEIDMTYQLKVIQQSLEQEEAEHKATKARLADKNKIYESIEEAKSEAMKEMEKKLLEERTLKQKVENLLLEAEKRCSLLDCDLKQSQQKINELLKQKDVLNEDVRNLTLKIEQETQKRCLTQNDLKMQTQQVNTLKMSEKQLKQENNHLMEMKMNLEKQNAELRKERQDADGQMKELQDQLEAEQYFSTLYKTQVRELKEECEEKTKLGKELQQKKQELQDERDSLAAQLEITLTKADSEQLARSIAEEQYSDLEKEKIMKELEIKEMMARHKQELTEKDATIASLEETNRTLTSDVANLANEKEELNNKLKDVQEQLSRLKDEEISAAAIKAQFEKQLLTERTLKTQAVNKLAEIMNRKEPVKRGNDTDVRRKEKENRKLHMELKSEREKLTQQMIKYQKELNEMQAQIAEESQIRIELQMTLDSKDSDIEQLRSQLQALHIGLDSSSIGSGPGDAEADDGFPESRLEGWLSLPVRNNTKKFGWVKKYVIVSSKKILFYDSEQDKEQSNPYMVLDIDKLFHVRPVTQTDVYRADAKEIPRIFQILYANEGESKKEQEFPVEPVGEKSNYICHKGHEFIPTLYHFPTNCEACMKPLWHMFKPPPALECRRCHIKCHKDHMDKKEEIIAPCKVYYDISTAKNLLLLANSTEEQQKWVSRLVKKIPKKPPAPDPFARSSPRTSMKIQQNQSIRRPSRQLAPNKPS

SMILES | IC50 [µM]
O=C(O)c1cc(NCc2ccc3c(c2)OCO3)ccc1N1CCOCC1 [2-morpholino-5-(piperonylamino)benzoic acid] | > 59.6
O=C(Nc1nc(-c2ccncc2)cs1)C1COc2ccccc2O1 (centres undefined) | < 0.00303
C[C@H]1CNCCN1S(=O)(=O)c1cccc2cnccc12 | 0.1
Cc1cccc2cc(=O)[nH]c(C)c12 [1,8-dimethyl-2H-isoquinolin-3-one] | > 59.6
O=C(CSc1nnc(-c2ccncc2)[nH]1)c1ccccc1 | 0.765
COc1cc(N=CC2C(=O)Nc3ccccc32)cc(OC)c1OC (centres undefined) | 10.5
COC(=O)c1cccc2c1-c1ccccc1C2N=O (centres undefined) [(9Z)-9-hydroximinofluorene-4-carboxylic acid methyl ester] | > 19.9
N#Cc1cccc(NC(=O)CSc2ccccc2)c1 [MLS000099417] | > 19.9
Nc1nonc1-c1nc2ccccc2[nH]1 | 23.1
N#Cc1c(N=Cc2cccs2)sc2c1CCCCC2 [2-(2-thenylideneamino)-5,6,7,8-tetrahydro-4H-cyclohepta[b]thiophene-3-carbonitrile] | > 59.6
N#CC1C(=N)Oc2cc(O)ccc2C1c1ccncc1 (centres undefined) [2-amino-7-hydroxy-4-(4-pyridyl)-4H-chromene-3-carbonitrile] | 127
CCCCC(=O)Nc1ccc2c(c1)C(=O)NC2=O [MLS000103070] | > 19.9
CCCCc1c(C)nc(N)[nH]c1=O [2-azanyl-5-butyl-6-methyl-1H-pyrimidin-4-one] | > 59.6
CC(=O)c1ccc(OCC(O)COc2ccc(C(C)=O)cc2)cc1 [1-[4-[3-(4-acetylphenoxy)-2-hydroxy-propoxy]phenyl]ethanone] | > 59.6
c1cc2c(cc1Nc1nc(-c3ccc4c(c3)OCO4)cs1)OCCO2 [4-(1,3-benzodioxol-5-yl)-N-(2,3-dihydro-1,4-benzodioxin-6-yl)-1,3-thiazol-2-amine] | > 59.6
CCN1C(=O)N(CC)C(O)(c2ccccc2)C1(O)c1ccccc1 (centres undefined) [1,3-diethyl-4,5-bis(oxidanyl)-4,5-diphenyl-imidazolidin-2-one] | > 59.6
O=C(Nn1c(=S)[nH]c2ccccc2c1=O)c1ccncc1 | > 19.9
CC(=O)c1cccc(NC(=O)NCc2cccs2)c1 [1-(3-acetylphenyl)-3-(2-thenyl)urea] | > 59.6
C1=C(c2c[nH]c3ccccc23)CCNC1 | 2.53
c1ccc2c(c1)[nH]c1cnccc12 [9H-pyrido[3,4-b]indole] | > 19.9
CCc1cc2c(O)ncnc2s1 [MLS000029626] | 5.72
O=C1NC(=O)c2cc(NC(=O)C3CCCCC3)ccc21 [MLS000062910] | > 19.9
Cc1cc(=O)n(-c2ccccc2)[nH]1 [MLS000069602] | > 59.6

Same assay, conditions: inactive by the depositor's call

SMILES | IC50 [µM]
N#Cc1cccc(NC(=O)NCCc2c[nH]c3ccccc23)c1 [SMR000096894] | 16.1
CCOC1(OCC)N=C(N)C2(C#N)C(c3ccc(NC(C)=O)cc3)C12C#N (centres undefined) [MLS000085499] | 445
Cc1ccc(SCc2nc(-c3ccncc3)no2)cc1 [4-(5-{[(4-methylphenyl)thio]methyl}-1,2,4-oxadiazol-3-yl)pyridine] | 42.6
CCC(=O)Nc1ccc(C(=O)Cn2nc(C(=O)O)c3ccccc3c2=O)cc1 [4-keto-3-[2-keto-2-(4-propionamidophenyl)ethyl]phthalazine-1-carboxylic acid] | 11
Cc1c(C(=O)Nc2ccc3oc(-c4cccnc4)nc3c2)oc2ccccc12 [3-Methyl-benzofuran-2-carboxylic acid (2-pyridin-3-yl-benzooxazol-5-yl)-amide] | 1010
c1nc(NC2CCCCC2)c2[nH]cnc2n1 [N-cyclohexyl-7H-purin-6-amine] | 15.3
Cc1ccc2c(c1)c1c3n2CCN(C(=O)Cn2c(-c4ccccc4)noc2=O)C3CCC1 (centres undefined) [4-[2-(8-Methyl-1,2,3a,4,5,6-hexahydro-pyrazino[3,2,1-jk]carbazol-3-yl)-2-oxo-ethyl]-3-phenyl-4H-[1,2,4]oxadiazol-5-one] | 18.8
O=C(NCc1ccc2c(c1)OCO2)c1ccc2snnc2c1 [Benzo[1,2,3]thiadiazole-5-carboxylic acid (benzo[1,3]dioxol-5-ylmethyl)-amide] | 11.6
Cc1c(C)n(C)c2ccc(C(=O)NCc3cccs3)cc12 [1,2,3-trimethyl-N-(2-thenyl)indole-5-carboxamide] | 12
Cc1cc2c(ccc3[nH]onc32)n1 [MLS000038925] | 18.8
COCCN(CCOC)S(=O)(=O)c1ccc(C(=O)Nc2nc(-c3ccncc3)cs2)cc1 [4-[bis(2-methoxyethyl)sulfamoyl]-N-(4-pyridin-4-yl-1,3-thiazol-2-yl)benzamide] | 41.2
O=C(Oc1cccc2c(=O)[nH]ccc12)c1ccccc1 [(1-oxo-2H-isoquinolin-5-yl) benzoate] | 55.7
c1coc(CNc2ncnc3[nH]cnc23)c1 | 21.4
CN(C)c1ccc(-c2ccncc2)cc1 [MLS000105960] | 31.8
N#Cc1cc2c(nc1SCc1ccncc1)CCC2 [2-(4-pyridylmethylthio)-1-pyrindan-3-carbonitrile] | 20.5
Cc1c(C(=O)N2CCCCC2)sc(N)c1C#N [2-amino-4-methyl-5-(piperidine-1-carbonyl)thiophene-3-carbonitrile] | 86.7
